Values after ≈ are worked out from the molar mass of the structure shown. Where two headings read alike, the source gives them in different places. Some results are limits rather than exact numbers.

Broadly, the logD is lipophilicity at a set pH, counting ionised and neutral species. Low readings indicate lower lipophilicity, high ones higher lipophilicity. Broadly, the solubility is how much of the substance goes into solution per volume. Higher therefore signals a readily soluble substance. As a reminder, the hepatocyte CLint is the rate of metabolic loss divided by the concentration. The low end stands for greater metabolic stability, the high end for faster metabolism. The microsomal CLint is the rate of metabolic loss divided by the concentration. A high value points to faster metabolism. The AUC(0-inf) is the area under the concentration-time curve extrapolated to infinity. High values mean more exposure, low ones less exposure. As usually defined, the AUC(0-t) is exposure summed from dosing to a finite time, without extrapolation to infinity. Higher therefore signals more exposure. The Cmax is the highest concentration seen after dosing. What is called MRT inf is the average time that molecules of a dose stay in the body. The term MRT last denotes a mean duration of stay, worked out from the concentration-time curve. Usually Tmax stands for the time from dosing to the highest level. Broadly, the half-life is the time needed for the level to fall by half in the phase considered. Read a low half-life as fast loss.

The test system of data set [1] is E. romani venom. Particulars: 30 mg/kg single oral dosing; ref not given; cited from earlier work.
For data set [2], the system named is SVMP activity of Echis romani venom. Particulars: read-out: ERO EC50; E. romani venom; ref not given; cited from earlier work.
The test system of data set [3] is E. romani venom. Particulars: venom 10 μg/egg, in words.
Method: Fertile hens eggs were supplied on day 1 post fertilization from UK supplier MedEggs Ltd. Eggs were immediately placed horizontally to incubate at 37 °C until day 5 of development. Candling was conducted to mark the position of the embryo to guide windowing. Any infertile eggs were removed at this stage. To access the embryos, all fertile eggs were then windowed under laminar flow. In brief, 6–8 mL of albumin was removed using a 23G needle. The area marking the position of the embryo was then covered with medical tape, and a dish of shell removed using sharp dissection scissors. The exposed embryo was then covered using parafilm and the egg returned to the incubator overnight. Surviving embryos were then randomly allocated into groups of n = 5. […] Treatments were given in a total volume of 10 μL, administered directly onto (i.e., topically) the vitelline vein. Embryos were returned to the incubator immediately following dosing, and then observed at 1, 2, 4, and 6 h. Survival was monitored via the observation of a heartbeat. Venom pathology was captured using a Motic SMZ 171-TLED microscope system. In brief, at each observation time point (1, 2, 4, and 6 h post envenoming) images were captured using a Moticam X5 Wi-Fi camera. To track changes across the experimental time course, the imaging position was kept consistent at each time point for individual embryos.
For data set [4], the system named is E. romani venom in human whole blood. As to conditions: venom 60 ng plus drug 5 μM.
Method: We measured the coagulation profile of whole human blood using thromboelastography, and compared with venom stimulated, and venom and drug stimulated, clotting profiles. […] Blood samples were collected in ACD-A blood tubes. Using a ROTEM delta (Werfen) a final volume of 300 μL blood per reaction was pipetted into prewarmed cups (37 °C), with four channels per run. Whole blood was warmed for 5 min at 37 °C, during which time 12 μL of E. romani venom (5 ng/nL concentration, 60 ng dose), 15 μL of DMSO vehicle or test compounds (5 μM final concentration, 0.2% DMSO), and 20 μL of Startem reagent (CaCl2, Werfen) was prepared. The maximum incubation time of venom and inhibitors was 2 min, before 253 μL of whole blood were added and mixed before reading on the ROTEM delta. The commonly used parameters of clotting time and maximum clot firmness (MCF) were reported, from a minimum of three independent measurements per experimental group.
Data set [5] deals with SVMP activity of Echis romani venom. As to conditions: read-out: Inhibition of SVMP enzymatic activity EC50 ERO, E. romani venom, mean of n ≥ 3, range in brackets.
Method: (§1) Throughout our medicinal chemistry campaign, compounds were evaluated for their ability to inhibit enzymatic SVMP toxin activity in vitro using a previously described fluorescent-based substrate cleavage assay against five medically important viper venoms, namely Echis romani (Roman’s carpet viper, West Africa), Crotalus atrox (Western diamondback rattlesnake, North America), Calloselasma rhodostoma (Malayan pit viper, South East Asia), Bothrops jararaca (jararaca, South America) and Bitis arietans (puff adder, Africa).
(§2) Compounds of interest were stamped onto 384-well plates at a volume of 0.91 μL at a concentration of 1 mM in 100% DMSO (D2650, Sigma-Aldrich). Positive and negative control wells were stamped with 0.91 μL of 100% DMSO. To the test wells and the venom-only positive control wells, 15 μL of venom diluted to 0.066 μg/mL in PBS was added, giving a final amount of 1 μg/well. In the no venom negative control wells, 15 μL of PBS was added. The plates were then sealed, span briefly in a Platefuge (C2000, Benchmark Scientific) and incubated at 37 °C for 25 min to allow venom-inhibitor interaction. […] Dose response plates were conducted identically and the % inhibition values at each dose were used to draw EC50 curves to estimate the EC50 value of each compound tested. All SVMP experiments were repeated independently a minimum of three times.
Data set [6] has as its system procoagulant venom activity (E. romani and B. jararaca). Particulars: in words; coagulation assay.
Method: (§3) This assay consists of preincubating venom (or venom vehicle control) at a species-specific dose with the compound of interest (or compound vehicle control), then adding citrated bovine plasma to the wells and activating the clotting cascade with calcium chloride. […] Compounds of interest were stamped onto 384-well plates at a volume of 0.5 μL and a concentration of 10 mM in 100% DMSO. Positive and negative control wells were stamped with 0.5 μL of 100% DMSO. To the test wells and the venom-only positive control wells, 10 μL of venom diluted to 1 μg/mL (E. romani) or 10 μg/mL (B. jararaca) in PBS was added, giving a final well amount of 10 ng (E. romani) or 100 ng (B. jararaca) per well. In the no venom negative control wells, 10 μL of PBS was added. The plates were then sealed, span briefly in a Platefuge and incubated at 37 °C for 25 min to allow venom-inhibitor interaction. While the plates were incubating, sufficient citrated bovine plasma (S0260, BioWest) to allow 20 μL/well was centrifuged at 3120 RCF for 5 min to remove any residual cellular debris and the supernatant was collected. The 384-well plates were removed from the incubator for 5 min to allow acclimation to room temperature, then 20 μL/well of 20 mM CaCl2 was added and immediately followed by the addition of 20 μL/well of centrifuged citrated bovine plasma, both via a Multidrop Combi reagent dispenser (5840330, Thermo Fisher Scientific). The plates were then read kinetically using an absorbance protocol on a CLARIOStar microplate reader at 595 nm for 60 min. […] Dose response plates were conducted identically and the % inhibition values at each dose were used to draw EC50 curves to estimate the EC50 value of each compound tested. All coagulation experiments were repeated independently a minimum of three times.
The subject of data set [7] is SVMP activity of Bothrops jararaca venom. Particulars: read-out: Inhibition of SVMP enzymatic activity EC50 BJA; B. jararaca venom; mean of n ≥ 3, range in brackets.
Method: as §1, §2
In data set [8] the test system is E. romani P–I, P–II and P–III SVMPs. Particulars: gel; for protection against degradation of fibrinogen: P–I, P–II, P–III SVMPs, drug 10 μM (P–I, P–II), 400 nM (P–III).
Method: (§4) Evaluation of SVMP toxin activity of human prothrombin and fibrinogen and inhibition by test compounds was performed by SDS-PAGE degradation gel electrophoresis using venom-purified toxins. P–I, P–II and P–III SVMPs were isolated using an adaptation of the method of Howes et al. Whole E. romani venom (15 mg) was initially separated using size exclusion chromatography (SEC) on a 120 mL column of Superdex 75 (Cytiva). The P–II SVMP (22 kDa) was pure and ready to use at this stage. P–I and P–III SVMP containing peaks were separately applied to a 1 mL high resolution hydrophobic interaction chromatography (HIC) column (SOURCE 15PHE, Cytiva). […] The P–I eluted as two peaks of proteins with identical molecular weight (21 kDa) which were combined back together. The P–III-containing fraction from SEC eluted from HIC as multiple peaks of P–III SVMP isoforms, well separated from the earlier eluting L-amino acid oxidase and high molecular weight C-type lectin-like proteins. The proteins in the PIII-containing peaks were pooled back together.
Degradation of human fibrinogen was measured in a similar manner. Human fibrinogen (Merck) was added at 5 μg/reaction and incubated with the different SVMP isoforms in the presence or absence of drugs. Drug concentrations used were 10 μM for P–I and P–II SVMP and 400 nM for P–III SVMP. The reactions consisted of 200 ng SVMP isoform and the appropriate concentration of drug, which were then incubated for 30 min at 37 °C in a water bath. Five micrograms of fibrinogen were then added and the samples incubated for another hour at 37 °C, before separation by SDS-PAGE as described above.
A short description of data set [9]: physchem. Particulars: organic solvent / aqueous solvent at pH 7.4, pH 7.4.
Method: (§5) The DMPK properties data described in the manuscript were measured via a high-throughput platform by AstraZeneca (United Kingdom).
Data set [10] concerns SVMP activity of Calloselasma rhodostoma venom. As to conditions: read-out: Inhibition of SVMP enzymatic activity EC50 CRH; C. rhodostoma venom; mean of n ≥ 3, range in brackets.
Method: as §1, §2
Data set [11] deals with E. romani P–I and P–III SVMPs. Particulars: drug 2 μM, gel.
Method: as §4
Prothrombin degradation was measured by incubating 2 μg of human prothrombin (Hematologic Technologies INC) in the presence or absence of drug and the P–I, P–II, and P–III SVMPs. […] Briefly, drug or DMSO and 200 ng of purified SVMP isoform were incubated for 30 min at 37 °C in a water bath, after which 2 μg of human prothrombin were added and the samples incubated for another hour at 37 °C. Drug concentrations used were 2 μM for P–I and P–III SVMPs. Samples were then processed for loading onto a 4–20% SDS-PAGE gel (Biorad) and were run under reducing conditions for 45 min at 180 V. The gels were stained with Coomassie Brilliant Blue R250 and degradation profiles were visualized and images captured using a GelDoc (Biorad).
Data set [12] concerns procoagulant activity of E. romani venom. Particulars: read-out: Coagulation assay EC50 E. romani; 10 ng E. romani venom, citrated bovine plasma; mean of n ≥ 3, range in brackets.
Method: as §3
Data set [13] can be described thus: physchem. Particulars: aqueous medium at pH 7.4, pH 7.4, aqueous buffer.
Method: as §5
Data set [14] deals with procoagulant activity of B. jararaca venom. As to conditions: read-out: Coagulation assay EC50 B. jararaca; 100 ng B. jararaca venom, citrated bovine plasma; mean of n ≥ 3, range in brackets.
Method: as §3
A short description of data set [15]: in vitro. As to conditions: rat, hepatocytes.
Method: as §5
Data set [16] relates to SVMP activity of Bitis arietans venom. As to conditions: read-out: Inhibition of SVMP enzymatic activity EC50 BAR; B. arietans venom; mean of n ≥ 3, range in brackets.
Method: as §1, §2
A short description of data set [17]: in vitro. Particulars: human, microsomes.
Method: as §5
Data set [18] has as its system SVMP activity of Crotalus atrox venom. Particulars: read-out: Inhibition of SVMP enzymatic activity EC50 CAT; C. atrox venom; mean of n ≥ 3, range in brackets.
Method: as §1, §2
In data set [19] the test system is SVMP activity of five viper venoms (E. romani, C. atrox, C. rhodostoma, B. jararaca, B. arietans). As to conditions: read-out: broad-spectrum inhibition of SVMP activity EC50s; range over the five venoms.
Method: as §1, §2
The conditions of data set [20]: mouse.
Method: (§6) The in vivo PK study was performed by ChemPartner (Shanghai, China). […] Mice had access to food and water throughout the pre- and postdose sampling period. […] Approximately 110 μL whole blood/time point (sampling at 0.083, 0.25, 0.5, 1, 2, 4, 8, and 24 h) was collected via serial bleeding in K2EDTA tube via facial vein. The blood sample was kept on ice and centrifuged (2,000 × g, 4 °C, 5 min) within 15 min postsampling. The plasma drug concentrations were determined by LC-MS/MS (ESI, Triple Quad 5500 System) on positive ion mode and using dexamethasone as internal standard. Liquid chromatography (LC) was performed using a 2.5 μm Xbridge BEH-C18 column (2.1 mm × 50 mm) at 60 °C with a rate of 0.6 mL/min. The following mobile phases were used; A: Water (+0.025% Formic acid and 1.0 mM ammonium acetate), B: Methanol (+0.025% Formic acid and 1.0 mM ammonium acetate).
For data set [21], the system named is mouse fibrinogen and prothrombin. Particulars: in words.
Method: Mouse plasma samples were diluted 1:50 (antifibrinogen blots) and 1:30 (antiprothrombin blots) and 5 μL was run on 4–20% SDS-PAGE gels (BioRad) at 180 V for 1 h. The separated proteins were then transferred onto nitrocellulose membranes using semidry transfer on a Trans-Blot Turbo (BioRad) using the following conditions: 1.3 A, 25 V, 7 min. Blots were then stained for 5 min with Revert 700 Total Protein Stain (LICORbio) following the manufacturer’s protocol and imaged on the 700 nm channel on an Odyssey Fc Imaging System to detect protein abundance and ensure equal loading. Membranes were then destained in 0.1 M NaOH, 30% methanol for no longer than 10 min, then blocked in 5% milk TBST for 1 h. The primary antibodies: antifibrinogen (ab34269, rabbit polyclonal, Abcam) and antiprothrombin (PA5-77976, rabbit polyclonal, Thermo Fisher) were diluted 1:1,500 and 1:1,000, respectively, in 5% milk TBST. The membranes were incubated with the appropriate primary antibody for 1.5 h at room temperature, followed by three 5 min washes in TBST. Blots were then incubated for 1 h at room temperature with an IRDye 800CW donkey anti-rabbit IgG secondary antibody (1:15000, LICORbio), followed by three 5 min washes in TBS. The blots were imaged on an Odyssey Fc Imaging System at both 700 and 800 nm.
The test system of data set [22] is E. romani venom.
Method: Room conditions were set at 20–24 °C and 45–65% humidity, 12/12 h light cycles. Mice were allowed ad libitum access to Picolab 5R53 food (Lab Diet, USA) and reverse osmosis water and housed with nesting material and environmental enrichment materials.
Mice weighed 22–28 g at the start of study. Five milligram or kilogram morphine was administered subcutaneously as an analgesic 15 min prior to venom administration. […] No criteria for including or excluding animals was applied, and all data points were included in analyses. Animals were monitored for humane end points (loss of righting reflex, seizure, external hemorrhage) for 8 h to encompass the drug exposure time frame, and any animals showing such signs were immediately euthanized by rising concentrations of carbon dioxide. All observations were performed by mixed gender experimenters who were blinded to the drug group allocation. Time of death, number of deaths and number of survivors were recorded, where deaths and times of death represent implementation of humane end point-dictated euthanasia. Kaplan–Meier survival plots were generated using GraphPad Prism 9.0 (GraphPad Software, San Diego, USA).
The next data set can be described thus: in vivo. As to conditions: male, CD1, mouse, plasma, po, 20 mg/kg.
The subject of data set [23] is thrombin-antithrombin (TAT) complexes.
Method: Blood samples were collected from mice via cardiac puncture immediately following euthanasia. Samples were centrifuged at 1400 × g for 10 min at 4 °C, and the plasma supernatant stored at −80 °C until use. Plasma TAT levels were determined using a sandwich ELISA provided as a commercial kit (Abcam, ab137994). Mouse plasma samples were diluted 1:150 using Diluent M and were run in duplicate alongside a standard curve. Each well received 50 μL diluted plasma and was incubated for 2 h at room temperature to allow for the reaction with the TAT complexes antibodies coated onto the plate. After five washes, 50 μL of biotinylated mouse TAT complexes antibodies were added to the plate and the reaction allowed to proceed for another 2 h. Following another five washes, 50 μL of a streptavidin-peroxidase conjugate were added to the plate and incubated for another 30 min. Next, 50 μL of a chromogenic substrate (3,3′,5,5′-tetramethylbenzidine) was added to the plate and the peroxidase-dependent reaction allowed to proceed until a clear blue color formed in the well. At this point 50 μL of stop solution was added and the absorbance read immediately at 450 and 570 nm. The 570 nm absorbance readings were subtracted from the 450 nm ones, and the levels of TAT complexes (ng/mL) extrapolated based on the standard curve.

Method for human plasma protein: as §5
Method for in vivo: as §6

In the case of `O=S(=O)(O)CC(S)CS` (centres unmarked) [DMPS, 2,3-dimercapto-1-propanesulfonic acid], in the data set with E. romani venom [1], the “oral dosing murine survival at 8 h” value is given as 40%. Besides, the EC50 in [2] is 1650 nM.
Turning to `COCCOC(=O)N1CCN(S(=O)(=O)c2cc(F)c(Oc3ccc(Cl)cc3)c(F)c2)[C@@H](C(=O)NO)C1` [XL-784, reference compound], the “venom-induced hemorrhage in embryos” value in the data set with E. romani venom [3] (drug 1 μg/egg, 1 h postvenom images) was “no evidence of hemorrhage”. For the same molecule, the “Human Protein binding (%free)” value in the data set with human plasma protein is recorded as 0.3 %free. Also, the “reduction of venom-induced MCF” value in data set [4] stood at 28.9%. The “effect on clotting time” value in [4] (in words) is reported as “no effect on clotting time”. Besides, the EC50 in data set [5] is 9.7 nM; in data set [7], 64.4 nM; in data set [10], 93.4 nM; in data set [12] it was greater than 10000 nM; in data set [14], greater than 10000 nM; in data set [16], 12.9 nM. Further, the EC50 in data set [18] stood at 50.6 nM. For the same molecule, the “inhibition of procoagulant venom activity” value in data set [6] is “inactive”. In addition, the “protection against degradation of fibrinogen” value in data set [8] is “protected against the degradation of fibrinogen”. For the same molecule, in data set [8] (P–II SVMP, drug 10 μM), the “protection against fibrinogen degradation by P–II SVMP” value was “inferior against P–II SVMP activity”. The molecule further showed a logD in the data set “physchem [9]” of 3.2. Further, the “protection against prothrombin degradation” value in [11] is on record as “unable to protect against prothrombin degradation”. The concentration in solution in “physchem [13]” (solubility) was 316 µM (≈ 174 µg/mL). Further, the hepatocyte CLint in the data set “in vitro [15]” was 67.3 µL/min/1e6 cells. Besides, the microsomal CLint in “in vitro [17]” is 100 µL/min/mg.
Regarding `COc1ccc(S(=O)(=O)N2CCN(S(=O)(=O)C3CC3)C[C@@H]2C(=O)NO)cc1` [compound 23, (R)-4-(Cyclopropylsulfonyl)-N-hydroxy-1-((4-methoxyphenyl)sulfonyl)piperazine-2-carboxamide], the embryo survival result in the data set with E. romani venom [3] (drug 1 μg/egg topical, 6 h) is “complete survival”. For the same molecule, the “Human Protein binding (%free)” value in the data set on human plasma protein was found to be 66 %free. In data set [4] (mean), the clotting time stood at 8.6 min. Also, in data set [4] (mean), the “maximum clot firmness (MCF)” value was 60.3 [SD 0.6] mm. In addition, the EC50 in [5] (listed as 23 (DC-174)) was 4.7 nM; in [7], 10.9 nM; in data set [19] it was 4.7 to 38.6 nM; in [10], 38.6 nM; in data set [12] it was 135 nM; in data set [14], 13.4 nM. For the same molecule, the EC50 in [16] was 3.9 nM; in data set [18], 22.9 nM. For the same molecule, the “protection against degradation of fibrinogen” value in data set [8] is given as “protected against the degradation of fibrinogen”. The logD in the data set “physchem [9]” was 0.2. For the same molecule, the “drug level at 4 h as share of C max” value in [20] (20 mg/kg oral, 4 h after dosing) came to 8.4%. Also, the “time for drug levels to reach their peak” value in data set [20] (oral dosing) is recorded as 30 min. In addition, the “protection against prothrombin degradation” value in data set [11] is “almost full protection”. The “plasma prothrombin and fibrinogen profiles” value in [21] (single 20 mg/kg oral dose, surviving mice) was “intact prothrombin and fibrinogen profiles”. In data set [21] (two 20 mg/kg oral doses), the plasma fibrinogen result is listed as “fibrinogen was detectable in all multiply dosed animals”. In addition, in [21] (two 20 mg/kg oral doses), the plasma prothrombin entry was “Prothrombin was detectable in three of the four surviving mice”. In the data set “physchem [13]”, the solubility was greater than 1000 µM. For the same molecule, the “survival times vs venom-only” value with E. romani venom [22] (90 μg venom i.p., single 20 mg/kg oral dose, p = 0.01, in words) is “significantly prolonged survival times”. This molecule gave a mean survival time with E. romani venom [22] (two dose oral regimen 20 mg/kg, 8 h experiment) of 420 min. Also, the “time at which the mouse succumbed” value with E. romani venom [22] (two dose oral regimen 20 mg/kg, one of five mice) stood at 180 min. Moreover, the hepatocyte CLint in “in vitro [15]” amounted to 13.3 µL/min/1e6 cells. The molecule further showed a microsomal CLint in “in vitro [17]” of 8.3 µL/min/mg. This molecule also gave an AUC(0-inf) in the data set “in vivo” of 450 ng·h/mL. In the data set “in vivo”, this molecule showed an AUC(0-t) of 444 ng·h/mL. In the data set “in vivo”, this molecule yielded a Cmax of 311 ng/mL. Moreover, the MRT inf in the data set “in vivo” turned out to be 1.61 h. Besides, the MRT last in the data set “in vivo” stood at 1.49 h. Besides, the Tmax in the data set “in vivo” came to 0.5 h. The concentration at 4 h in the data set “in vivo” worked out at 26.1 ng/mL. Further, the half-life in “in vivo” was 1.41 h. Further, the “TAT levels, mean” value in data set [23] (single 20 mg/kg oral dose, all mice) came to 18.6 ng/mL; in [23] (single 20 mg/kg oral dose, mice that died during the experiment), 29.6 ng/mL; in data set [23] (single 20 mg/kg oral dose, the two survivors) it was 2.1 ng/mL; in [23] (two 20 mg/kg oral doses) it was 13.7 ng/mL.

(Values after article PMC13126677 (Journal of Medicinal Chemistry, 2026).)
